# Reference: patent US9844550B2, “Phtalazinone derivatives and manufacturing process thereof” (ILDONG PHARM CO., LTD., priority 2013, dated 2017)
# Assays:
# Tankyrase-1 = molecular target: T1, Tankyrase-1 (Homo sapiens, UniProt O95271); assay: Tankyrase-1 enzyme assay; assay type: biochemical; settings: 1 hr at room temperature, chemiluminescent readout
# T1 sequence (O95271 1-1327): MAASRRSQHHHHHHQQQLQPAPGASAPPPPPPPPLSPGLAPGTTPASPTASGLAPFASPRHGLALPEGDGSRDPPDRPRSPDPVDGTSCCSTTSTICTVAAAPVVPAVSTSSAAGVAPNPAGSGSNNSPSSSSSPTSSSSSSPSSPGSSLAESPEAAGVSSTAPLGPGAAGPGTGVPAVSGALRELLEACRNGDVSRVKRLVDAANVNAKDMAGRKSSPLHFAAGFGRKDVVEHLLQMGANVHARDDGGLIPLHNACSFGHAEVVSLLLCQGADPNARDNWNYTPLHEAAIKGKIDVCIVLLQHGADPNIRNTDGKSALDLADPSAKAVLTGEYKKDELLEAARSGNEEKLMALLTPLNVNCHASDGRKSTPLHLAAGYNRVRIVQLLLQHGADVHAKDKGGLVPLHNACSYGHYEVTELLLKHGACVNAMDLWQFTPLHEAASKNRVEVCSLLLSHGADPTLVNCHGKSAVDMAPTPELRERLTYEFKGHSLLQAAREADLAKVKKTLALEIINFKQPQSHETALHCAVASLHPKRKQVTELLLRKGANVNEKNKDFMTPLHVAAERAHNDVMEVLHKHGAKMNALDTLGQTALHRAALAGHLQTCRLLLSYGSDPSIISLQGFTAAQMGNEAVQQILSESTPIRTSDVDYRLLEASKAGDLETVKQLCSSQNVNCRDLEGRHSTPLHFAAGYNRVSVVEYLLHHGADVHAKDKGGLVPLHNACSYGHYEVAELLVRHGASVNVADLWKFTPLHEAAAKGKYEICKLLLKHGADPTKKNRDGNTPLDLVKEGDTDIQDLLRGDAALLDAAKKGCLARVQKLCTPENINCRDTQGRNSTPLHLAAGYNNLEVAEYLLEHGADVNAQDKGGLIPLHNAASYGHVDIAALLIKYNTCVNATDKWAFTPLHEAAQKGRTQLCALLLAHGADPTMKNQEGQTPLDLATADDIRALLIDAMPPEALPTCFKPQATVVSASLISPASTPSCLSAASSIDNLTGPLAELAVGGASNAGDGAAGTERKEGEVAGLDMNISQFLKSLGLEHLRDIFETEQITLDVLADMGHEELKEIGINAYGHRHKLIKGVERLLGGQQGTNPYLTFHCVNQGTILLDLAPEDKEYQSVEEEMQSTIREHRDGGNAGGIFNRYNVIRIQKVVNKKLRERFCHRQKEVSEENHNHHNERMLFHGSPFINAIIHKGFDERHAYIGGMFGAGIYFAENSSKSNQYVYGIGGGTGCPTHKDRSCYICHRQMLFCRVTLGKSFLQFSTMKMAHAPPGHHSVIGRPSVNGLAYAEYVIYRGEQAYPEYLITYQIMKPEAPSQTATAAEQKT
# Protocol: 5. Tankyrase-1 Enzyme Assay
# Tankyrase-1 enzyme assay was performed to determine Tankyrase-1 inhibitory activity of compounds in the present invention. The enzymatic reaction was conducted by coating the plate with substrates of tankyrase-1, and then the plate was washed. Compounds in the present invention serially diluted in DMSO were added to the reaction buffer activating tankyrase-1, and incubated for 1 hr at room temperature. After stopping the reaction, the plate was washed, and streptavidin-HRP was added to each well. IC50 was calculated by adding chemiluminescent substrate and immediately reading the sample in a microplate reader (Biotek).
# [1] = tested on: LNCaP prostate cancer cell line; assay: Cell viability assay (LNCaP); assay type: cell-based; settings: Homo sapiens, 264 h; LNCaP cells, treated 11 days
# Protocol: 4. Cell Viability Assay (LNCaP)
# (§1) Cell viability assay was performed by using LNCaP cell line to measure cytotoxicity of compounds in the present invention. LNCaP prostate cancer cell line was seeded into 96-well plates at 37° C. under 5% CO2 atmosphere using RPMI-1640 (Hyclone) containing 10% FBS (Hyclone). After 24 hr incubation, cells were treated with the invented compounds at various concentrations for 11 days. The medium was changed every 3 to 4 day. 11 days later, A fluorescence reagent was used to determine the IC50 values.
# [2] = tested on: Capan-1 pancreatic cancer cell line; assay: Cell viability assay (Capan-1); assay type: cell-based; settings: Homo sapiens, 240 h; Capan-1 cells, treated 10 days
# Protocol: 3. Cell Viability Assay (Capan-1)
# as §1, with “Capan-1” for “LNCaP”, “Capan-1 pancreatic” for “LNCaP prostate”, “IMDM (Sigma)” for “RPMI-1640 (Hyclone)”, “10” for “11”, “After 7-day incubation, the” for “The”, “changed. 10” for “changed every 3 to 4 day. 11”
# Mouse pharmacokinetics = assay type: in vivo; design: concentration or dose not given beside the values; settings: Balb/c male mice, blood samples 15 to 1140 min, LC-MS/MS
# Protocol: To evaluate the pharmacokinetics test, the invented compounds (from I-25 to I-1171) were determined as follows. Blood samples are collected at 15, 30, 60, 120, 240, 480, 1140 min. Quantification is by using a LC-MS/MS method specific to the selected compound. Pharmacokinetics parameters are calculated using WinNonLinnon compartmental analysis software.
# [3] = tested on: MDA-MB-436 breast cancer cell line; assay: Cell viability assay (MDA-MB-436); assay type: cell-based; settings: Homo sapiens, 144 h; MDA-MB-436 cells, treated 6 days
# How it was run: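 MDA-MB-436 breast cancer cells in DMEM/F12 with 10% FBS, treated 24 h after seeding with graded compound concentrations for 6 days at 37 °C, 5% CO2, medium changed every 3 days. Viability read with a fluorescence reagent; IC50 derived.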
# [4] = tested on: Capan-1 Human pancreatic cancer cells; assay: In vivo antitumoral efficacy, Capan-1 subcutaneous xenograft; settings: Capan-1 xenograft in Balb/c nude mice
# Protocol: To evaluate the in vivo antitumoral efficacy, the invented compounds (I-80˜171) was determined as a result to follows.
# Capan-1 Human pancreatic cancer cells were established as subcutaneous xenografts by injection of 8×10^6 cells into the flanks of adult female Balb/c nude mice. Mice with established tumors (160-250 mm^3) were selected for study (n=6/treatment group). The test compounds were formulated in DW and administered orally (po) at a dose of 30˜200 mg/kg. The vehicle alone was administered to control groups. Animals were dosed 5 days per week (Monday through Friday) for 3 consecutive weeks.
# Animals were weighed and tumor size was determined twice weekly by caliper measurements, and tumor volumes were calculated (volume=[…] (mm^3), where l and w refer to the larger and smaller dimensions collected at each measurement). The mean tumor volumes of each group were calculated. The change in mean treated tumor volume was divided by the change in mean control tumor volume, multiplied by 100 and subtracted from 100% to give the tumor growth inhibition for each group.
# Solubility test in water = assay type: physicochemical; settings: 25° C., atmospheric pressure
# Protocol: To evaluate the solubility, the invented compounds (I-159, I-161 and I-171) was determined as follows. The compounds was dissolve in water (1 mL, 10 mL and 100 mL) at 25° C. under an atmospheric pressure.
# [5] = 100 mg/kg po qd x 5, 3 consecutive weeks
# [6] = 200 mg/kg po qd x 5, 3 consecutive weeks
Compound,IC50 (Tankyrase-1) [nM],IC50 [1] [nM],IC50 [2] [nM],AUC (Mouse pharmacokinetics) [ng·h/mL],IC50 [3] [nM],"% TGI [4, 5] [%]","% TGI [4, 6] [%]",Solubility class in words (Solubility test in water),"% TGI ([4]; 30 mg/kg po qd x 5, 3 consecutive weeks) [%]","% TGI ([4]; 60 mg/kg po qd x 5, 3 consecutive weeks) [%]"
"O=C(c1cc(Cc2n[nH]c(=O)c3ccccc23)ccc1F)N1CC(NC2CCCC2)C1 [Compound I-27, 4-(3-(3-(cyclopentylamino)azetidine-1-carbonyl)-4-fluorobenzyl)phthalazin-1(2H)-one]",> 1000,50 to 300,50 to 300,472,≤ 5,,,,,
"CC(C)NC1CN(C(=O)c2cc(Cc3n[nH]c(=O)c4ccccc34)ccc2F)C1 [Compound I-32, 4-(4-fluoro-3-(3-(isopropylamino)azetidine-1-carbonyl)benzyl)phthalazin-1(2H)-one]",> 1000,50 to 300,50 to 300,,≤ 5,,,,,
"O=C(c1cc(Cc2n[nH]c(=O)c3ccccc23)ccc1F)N1CC(NCC2CC2)C1 [Compound I-33, 4-(3-(3-((cyclopropylmethyl)amino)azetidine-1-carbonyl)-4-fluorobenzyl)phthalazin-1(2H)-one]",> 1000,300 to 1000,300 to 1000,1020,≤ 5,,,,,
"O=C(c1cc(Cc2n[nH]c(=O)c3ccccc23)ccc1F)N1CC(NC2(C(F)(F)F)CC2)C1 [Compound I-80, 4-(4-fluoro-3-(3-((1-(trifluoromethyl)cyclopropyl)amino)azetidine-1-carbonyl)benzyl)phthalazin-1(2H)-one]",,50 to 300,50 to 300,2020,≤ 5,75.9,103.9,,,
"N#CC1(NC2CN(C(=O)c3cc(Cc4n[nH]c(=O)c5ccccc45)ccc3F)C2)CCC1 [Compound I-99, 1-((1-(2-fluoro-5-((4-oxo-3,4-dihydrophthalazin-1-yl)methyl)benzoyl)azetidin-3-yl)amino)cyclobutanecarbonitrile]",300 to 1000,300 to 1000,300 to 1000,586,5 to 50,,,,,
"O=C(c1cc(Cc2n[nH]c(=O)c3ccccc23)ccc1F)N1CC(Nc2ccc(Cl)nn2)C1 [Compound I-114, 4-(3-(3-((6-chloropyridazin-3-yl)amino)azetidine-1-carbonyl)-4-fluorobenzyl)phthalazin-1(2H)-one]",> 1000,5 to 50,,,300 to 1000,,,,,
"O=C(c1cc(Cc2n[nH]c(=O)c3ccccc23)ccc1F)N1CC[C@@H](Nc2ncc(Br)cn2)C1 [Compound I-130, (R)-4-(3-(3-((5-bromopyrimidin-2-yl)amino)pyrrolidine-1-carbonyl)-4-fluorobenzyl)phthalazin-1(2H)-one]",50 to 300,,,,≤ 5,,,,,
"CC(C)(C)NCC1CN(C(=O)c2cc(Cc3n[nH]c(=O)c4ccccc34)ccc2F)C1 [Compound I-147, 4-(3-(3-((tert-butylamino)methyl)azetidine-1-carbonyl)-4-fluorobenzyl)phthalazin-1(2H)-one]",> 1000,,,,300 to 1000,,,,,
"O=C(c1cc(Cc2n[nH]c(=O)c3ccccc23)ccc1F)N1CC(CNc2ccccc2)C1 [Compound I-150, 4-(4-fluoro-3-(3-((phenylamino)methyl)azetidine-1-carbonyl)benzyl)phthalazin-1(2H)-one]",> 1000,,,,50 to 300,,,,,
"Cl.O=C(c1cc(Cc2n[nH]c(=O)c3ccccc23)ccc1F)N1CC(NC2CCCC2)C1 [Compound I-158, 4-(3-(3-(cyclopentylamino)azetidine-1-carbonyl)-4-fluorobenzyl)phthalazin-1(2H)-one hydrochloride]",,,,,,44.9,80.9,,,
"CC(C)NC1CN(C(=O)c2cc(Cc3n[nH]c(=O)c4ccccc34)ccc2F)C1.Cl [Compound I-159, 4-(4-fluoro-3-(3-(isopropylamino)azetidine-1-carbonyl)benzyl)phthalazin-1(2H)-one hydrochloride]",,,,472,,59.4,69.4,Sparingly soluble,,
"Cl.O=C(c1cc(Cc2n[nH]c(=O)c3ccccc23)ccc1F)N1CC(NCC2CC2)C1 [Compound I-160, 4-(3-(3-((cyclopropylmethyl)amino)azetidine-1-carbonyl)-4-fluorobenzyl)phthalazin-1(2H)-one hydrochloride]",,,,2250,,55.8,88.2,,,
"CC(C)CNC1CN(C(=O)c2cc(Cc3n[nH]c(=O)c4ccccc34)ccc2F)C1.Cl [Compound I-161, 4-(4-fluoro-3-(3-(isobutylamino)azetidine-1-carbonyl)benzyl)phthalazin-1(2H)-one hydrochloride]",,,,1020,,,,Sparingly soluble,,
"Cl.O=C(c1cc(Cc2n[nH]c(=O)c3ccccc23)ccc1F)N1CC(CNC2CC2)C1 [Compound I-171, 4-(3-(3-((cyclopropylamino)methyl)azetidine-1-carbonyl)-4-fluorobenzyl)phthalazin-1(2H)-one hydrochloride]",,,,673,,,,Sparingly soluble,42.1,69.7
